From patent publication US11548880B2, “Modulators of hemoglobin” (Global Blood Therapeutics, Inc., priority 2018, dated 2023)

Target: T1, Hb (Homo sapiens, UniProt P68871+P69905)
T1 construct: from tissue; host or cells: whole blood
Assay: Whole blood assay: oxygen equilibrium curves (Hemox Analyzer), change in p50
Assay type: cell-based
Conditions: whole blood incubated 1 h at 37° C., equimolar ratio of hemoglobin to compound
Description: Whole blood assay: Oxygen equilibrium curves (OECs) were collected using a TCS Hemox Analyzer (TCS Scientific Company, New Hope, Pa., USA) to measure changes in the binding affinity of O2 to Hb. Whole blood was incubated for 1 h at 37° C. with the indicated compounds in an equimolar ratio of hemoglobin to compound and diluted into TES (2-[[1,3-dihydroxy-2-(hydroxymethyl)propan-2-yl]amino]ethanesulfonic acid)/saline buffer prior to measurements. For example, for whole blood at 20% hematocrit [Hct], which corresponds to 1 mM Hb, a compound concentration of 1 mM was used (for example, for compounds 1-5), and the incubated sample diluted 50- to 100-fold. The concentration for compounds 6-44 (Diastereomers 1 and 2) varied but remained in equimolar ratio to hemoglobin. The diluted samples were then oxygenated with compressed air within the Hemox Analyzer and the OECs were collected during deoxygenation as previously described (Guarnone et al., Haematologica, 1995, 80, 426-430). p 50 (partial pressure of O2 at which Hb is 50% saturated with O2) values were obtained using a non-linear regression analysis. Percentage change in p50 [Δp50(%)] was calculated as follows: Δp50(%)=[(p50 of control)−p50 with compound)/p50 control]×100.

T1 sequence (P69905 2-142 limits assumed): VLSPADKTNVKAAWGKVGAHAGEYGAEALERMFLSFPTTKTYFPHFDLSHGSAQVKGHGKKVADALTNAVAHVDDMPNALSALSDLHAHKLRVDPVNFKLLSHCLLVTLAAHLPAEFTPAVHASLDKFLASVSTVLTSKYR
T1 sequence (P68871 2-147 limits assumed): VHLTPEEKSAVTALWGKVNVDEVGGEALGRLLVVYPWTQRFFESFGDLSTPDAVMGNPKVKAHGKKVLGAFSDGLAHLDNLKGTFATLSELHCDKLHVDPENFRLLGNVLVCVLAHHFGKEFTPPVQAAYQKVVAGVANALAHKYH

SMILES	Delta-p50 (%)
CC(O)c1ncccc1C(=O)N1CCSC[C@H]1COc1cccc(O)c1C=O (single isomer, unassigned) [43 (Diastereomer 2)]	64.56
O=Cc1c(O)cccc1OC[C@@H]1CCCN1C(=O)c1ccccc1CO [Compound 26, 2-hydroxy-6-{[(2S)-1-[2-(hydroxymethyl)benzoyl]pyrrolidin-2-yl]methoxy}benzaldehyde]	51.72
O=Cc1c(O)cccc1OC[C@H]1CCCCN1C(=O)c1cccnc1CCO [Compound 38, 2-hydroxy-6-{[(2R)-1-[2-(2-hydroxyethyl)pyridine-3-carbonyl]piperidin-2-yl]methoxy}benzaldehyde]	60.85
O=Cc1c(O)cccc1OCC1CSCCN1C(=O)c1ccccc1CO (centres unmarked) [Compound 40, 2-hydroxy-6-({4-[2-(hydroxymethyl)benzoyl]thiomorpholin-3-yl}methoxy)benzaldehyde]	72.82
CC(O)c1ncccc1C(=O)N1CCOC[C@H]1COc1cccc(O)c1C=O (single isomer, unassigned) [41 (Diastereomer 2)]	53.94
O=Cc1c(O)cccc1OCC1CSCCN1C(=O)c1cccnc1CCO (single isomer, unassigned) [10 (Enantiomer 1), 2-hydroxy-6-((4-(2-(2-hydroxyethyl)nicotinoyl)-thiomorpholin-3-yl)-methoxy)benzaldehyde]	65.6
N#CCCc1ncccc1C(=O)N1CCOC[C@H]1COc1cccc(O)c1C=O [Compound 28, 3-{3-[(3S)-3-[(2-formyl-3-hydroxyphenoxy)methyl]morpholine-4-carbonyl]pyridin-2-yl}propanenitrile]	83.35
CC(O)Cc1ncccc1C(=O)N1CCSC[C@H]1COc1cccc(O)c1C=O (single isomer, unassigned) [44 (Diastereomer 2)]	54.34
O=Cc1c(O)cccc1OC[C@@H]1CCCCN1C(=O)c1cccnc1CCCO [Compound 18, (S)-2-hydroxy-6-((1-(2-(3-hydroxypropyl)nicotinoyl)-piperidin-2-yl)methoxy)-benzaldehyde]	79.67
O=Cc1c(O)cccc1OC[C@@H]1COCCN1C(=O)c1ccccc1CCO [Compound 22, 2-hydroxy-6-{[(3S)-4-[2-(2-hydroxyethyl)benzoyl]morpholin-3-yl]methoxy}benzaldehyde]	70.32
N#CCCc1ncccc1C(=O)N1CCCC[C@H]1COc1cccc(O)c1C=O [Compound 3, (S)-3-(3-(2-((2-formyl-3-hydroxyphenoxy)methyl)piperidine-1-carbonyl)pyridin-2-yl)propanenitrile]	85.8
COCCc1ccccc1C(=O)N1CCCC[C@H]1COc1cccc(O)c1C=O [Compound 14, (S)-2-hydroxy-6-((1-(2-(2-methoxyethyl)benzoyl)piperidin-2-yl)methoxy)benzaldehyde]	74.56
O=Cc1c(O)cccc1OC[C@@H]1CCCCN1C(=O)c1ccccc1CO [Compound 5, (S)-2-hydroxy-6-((1-(2-(hydroxymethyl)benzoyl)piperidin-2-yl)methoxy)benzaldehyde]	81.0
O=Cc1c(O)cccc1OC[C@@H]1CCCCN1C(=O)c1ncccc1CCO [Compound 16, (S)-2-hydroxy-6-((1-(3-(2-hydroxyethyl)picolinoyl)piperidin-2-yl)methoxy)benzaldehyde]	49.55
O=Cc1c(O)cccc1OC[C@@H]1CCCN1C(=O)c1cccnc1CCO [Compound 9, (S)-2-hydroxy-6-((1-(2-(2-hydroxyethyl)-nicotinoyl)pyrrolidin-2-yl)methoxy)benzaldehyde]	62.2
CC(O)Cc1ncccc1C(=O)N1CCOC[C@H]1COc1cccc(O)c1C=O (single isomer, unassigned) [42 (Diastereomer 1)]	76.39
COCCc1ncccc1C(=O)N1CCCC[C@H]1COc1cccc(O)c1C=O [Compound 2, (S)-2-hydroxy-6-((1-(2-(2-methoxyethyl)nicotinoyl)piperidin-2-yl)methoxy)benzaldehyde]	84.4
O=Cc1c(O)cccc1OCC1CSCCN1C(=O)c1ccccc1CO (single isomer, unassigned) [40 (Enantiomer 1), 2-hydroxy-6-((4-(2-(hydroxymethyl)benzoyl)-thiomorpholin-3-yl)-methoxy)benzaldehyde]	64.31
N#CCCc1ncccc1C(=O)N1CCC[C@H]1COc1cccc(O)c1C=O [Compound 30, (S)-3-(3-(2-((2-formyl-3-hydroxyphenoxy)methyl)-pyrrolidine-1-carbonyl)-pyridin-2-yl)propanenitrile]	74.19

SMILES	Delta-p50 (%)
CC(O)c1ncccc1C(=O)N1CCSC[C@H]1COc1cccc(O)c1C=O (single isomer, unassigned) [43 (Diastereomer 1)]	64.50
O=Cc1c(O)cccc1OC[C@@H]1CCCN1C(=O)c1nccnc1CCO [Compound 19, (S)-2-hydroxy-6-((1-(3-(2-hydroxyethyl)pyrazine-2-carbonyl)pyrrolidin-2-yl)methoxy)benzaldehyde]	54.67
CC(O)Cc1ncccc1C(=O)N1CCOC[C@H]1COc1cccc(O)c1C=O (single isomer, unassigned) [42 (Diastereomer 2)]	75.05
COCCc1nccnc1C(=O)N1CCC[C@H]1COc1cccc(O)c1C=O [Compound 25, 2-hydroxy-6-{[(2S)-1-[3-(2-methoxyethyl)pyrazine-2-carbonyl]pyrrolidin-2-yl]methoxy}benzaldehyde]	53.36
N#CCCc1nccnc1C(=O)N1CCOC[C@H]1COc1cccc(O)c1C=O [Compound 32, 3-{3-[(3S)-3-[(2-formyl-3-hydroxyphenoxy)methyl]morpholine-4-carbonyl]pyrazin-2-yl}propanenitrile]	60.55
COCCc1nccnc1C(=O)N1CCOC[C@H]1COc1cccc(O)c1C=O [Compound 27, 2-hydroxy-6-{[(3S)-4-[3-(2-methoxyethyl)pyrazine-2-carbonyl]morpholin-3-yl]methoxy}benzaldehyde]	66.58
O=Cc1c(O)cccc1OC[C@@H]1COCCN1C(=O)c1nccnc1CCO [Compound 21, 2-hydroxy-6-{[(3S)-4-[3-(2-hydroxyethyl)pyrazine-2-carbonyl]morpholin-3-yl]methoxy}benzaldehyde]	60.21
O=Cc1c(O)cccc1OCC1CSCCN1C(=O)c1cccnc1CO (single isomer, unassigned) [13 (Enantiomer 2), 2-hydroxy-6-((4-(2-(hydroxymethyl)nicotinoyl)-thiomorpholin-3-yl)-methoxy)benzaldehyde]	61.0
CC(O)Cc1ncccc1C(=O)N1CCSC[C@H]1COc1cccc(O)c1C=O (single isomer, unassigned) [44 (Diastereomer 1)]	66.57
COCCc1ccccc1C(=O)N1CCOC[C@H]1COc1cccc(O)c1C=O [Compound 29, 2-hydroxy-6-{[(3S)-4-[2-(2-methoxyethyl)benzoyl]morpholin-3-yl]methoxy}benzaldehyde]	78.79
CC(O)c1ncccc1C(=O)N1CCOC[C@H]1COc1cccc(O)c1C=O (single isomer, unassigned) [41 (Diastereomer 1)]	66.71
O=Cc1c(O)cccc1OC[C@@H]1CCCCN1C(=O)c1ccccc1C(O)CO (stereo partly drawn) [Compound 34, 2-{[(2S)-1-[2-(1,2-dihydroxyethyl)benzoyl]piperidin-2-yl]methoxy}-6-hydroxybenzaldehyde]	79.46
O=Cc1c(O)cccc1OC[C@@H]1COCCN1C(=O)c1nccnc1CO [Compound 33, 2-hydroxy-6-{[(3S)-4-[3-(hydroxymethyl)pyrazine-2-carbonyl]morpholin-3-yl]methoxy}benzaldehyde]	49.03
N#CCCc1ccccc1C(=O)N1CCOC[C@H]1COc1cccc(O)c1C=O [Compound 31, 3-{2-[(3S)-3-[(2-formyl-3-hydroxyphenoxy)methyl]morpholine-4-carbonyl]phenyl}propanenitrile]	74.03
O=Cc1c(O)cccc1OC[C@@H]1CCCCN1C(=O)c1ccccc1CCO [Compound 6, (S)-2-hydroxy-6-((1-(2-(2-hydroxyethyl)benzoyl)-piperidin-2-yl)methoxy)-benzaldehyde]	74.5
O=Cc1c(O)cccc1OC[C@@H]1CCCCN1C(=O)c1ccccc1C(O)CO (single isomer, unassigned) [34 (Diastereomer 2)]	81.59
O=Cc1c(O)cccc1OC[C@H]1COCCN1C(=O)c1cccnc1CCO [Compound 37, 2-hydroxy-6-{[(3R)-4-[2-(2-hydroxyethyl)pyridine-3-carbonyl]morpholin-3-yl]methoxy}benzaldehyde]	60.58
COCCc1ncccc1C(=O)N1CCC[C@H]1COc1cccc(O)c1C=O [Compound 24, 2-hydroxy-6-{[(2S)-1-[2-(2-methoxyethyl)pyridine-3-carbonyl]pyrrolidin-2-yl]methoxy}benzaldehyde]	65.51
O=Cc1c(O)cccc1OC[C@@H]1CCCCN1C(=O)c1ccccc1CCN1CCCC1 [Compound 17, (S)-2-hydroxy-6-((1-(2-(2-(pyrrolidin-1-yl)ethyl)benzoyl)piperidin-2-yl)methoxy)benzaldehyde]	27.09
